Tested on: 3D human skin equivalents
Assay: IL-36γ induced 3D skin equivalent model
Assay type: cell-based
Method: Hematoxylin & eosin (H&E) staining and immunohistochemistry (IHC) were performed using a Leica ST5010 autostainer or Leica Bond RX automated immunostainer. Standardized IHC protocols were used for anti-loricrin staining (Abcam AB85679). Stained tissue slides were digitized for image analysis using a Perkin Elmer P250 whole slide digital pathology slide scanner with 20X objective and extended focus scanning parameters. For quantitative analysis, N = 3 raft samples were analyzed per condition for each stain using whole slide digital analysis software (Indica Labs HALO). Staining was normalized to the length of the raft sample analyzed.
3D skin equivalents (SOR-300-FT-CTR) comprised of human neonatal keratinocytes and fibroblasts were purchased from MatTek, equilibrated for one day in proprietary formulated media (SOR-300-FT-CTR-MM) and then treated as indicated. Treatment groups contained hIL-36γ at 300 ng/mL, 10 μM of A-552, 10 μg/mL anti-IL36R antibody, 10 μg/mL IL-36RA, or 10 μg/mL IgG isotype control either alone or in combination with hIL-36γ. Control skin equivalents were treated with media only. Skin equivalents were treated for three days, with media collected for cytokine release studies at day two and replaced with fresh treatment media. After three days the skin equivalents were either placed in 10% neutral buffered formalin solution (for histology) or frozen (for qRT-PCR).
To measure IL-6, IL-8 and CXCL1 release from 3D skin equivalents diluted sample media collected at day 2 of the treatment (see above) was used in conjunction with V-PLEX multiplex immunoassay for IL-6 and IL-8 and a U-PLEX immunoassay for CXCL1 (Meso Scale Discovery) according to the manufacturers’ protocols.
RNA from frozen 3D skin equivalents was isolated using miRNeasy Mini Kit (Qiagen) per the manufacturers’ instructions. For qRT-PCR determination a CFX384 Real-Time System C1000 Touch Thermocycler was used. […] Each transcript measured was presented as a fold change compared to control using the ∆∆CT method as RNA fold increase where RPLP0 was used as a housekeeping gene.

COC(c1ccccc1)(c1ccccc1)[C@H](Oc1nc(C)cc(-c2ccc(C)c(N)c2)n1)C(=O)O [Compound A-552]
effect on hIL-36γ induced changes in morphology, gene expression and cytokine production (0.3 μg/mL hIL-36γ, 10 μM A-552, 10 μg/mL antibody or IL-36Ra, three days): attenuated | effect on 3D human skin equivalents when treated alone (without hIL-36γ): no appreciable effect
